Patent US20240417428A1, “POLYPEPTIDE FOR INHIBITING TRPM8 AND USE THEREOF” (ZHEJIANG UNIVERSITY, priority 2021, published 2024)

Experiments:
TRPM8 [1] = molecular target: T1, TRPM8 (Mus musculus, UniProt Q8R4D5); assay: Inside-out single-channel recording of menthol-activated TRPM8 at +80 mV; format: cell-based; set-up: expressed in transfected cells; host or cells: HEK293T; details: saturating menthol (1 mM) alone
Protocol: (§1) HEK293T cells were cultured in Dulbecco's modified Eagle culture medium under a 37° C., 5% CO2 environment, 10% fetal bovine serum, penicillin (100 U/mL), and streptomycin ([…]) was needed to add into the culture medium. Transient transfection was conducted by using Lipo 2000 (Invitrogen) transfection kit and following the instruction manual.
(§2) Electrophysiological experiment recordings were performed on the cells within 24˜48 h of transient transfections. Specifically, single channel electrophysiological recordings were performed within 8 h after transfection.
(§3) Measurement of the cell currents was respectively performed in the whole-cell recording mode, inside-out recording mode or outside-out recording mode with a HEKA EPC10 amplifier. In the whole cell electrophysiological recordings, glass microelectrodes made of borosilicate material were fire-polished to a original electrode resistance of about 3-6 MΩ. Serial resistance was compensated by 60%. The whole cell electrophysiological recordings were performed at ±80 mV. For single channel electrophysiological recordings, glass microelectrodes were fire-polished to a higher resistance of 6-8 MΩ2. Current signal was sampled at 10 kHz and filtered at 2.9 kHz. Membrane potential of the cell membrane would be clamped at +80 mV. All electrophysiological recordings were performed at room temperature (22° C.) (the maximum variation is 1° C.).
There were different bath and pipette solutions prepared for different ion channels current measurement. For ion channels such as TRPM8, TRPV1, TRPV2, TRPV3 and TRPA1, the formula of the bath and pipette solutions was: 130 mM NaCl, 0.2 mM EDTA and 3 mM HEPES, pH=7.2. For the current measurement of TRPM4 ion channel, the formula of the bath solution was: 130 mM NaCl and 3 mM HEPES, pH=7.2, and the formula of the pipette solution was: 500 μM CaCl2), 130 mM NaCl and 3 mM HEPES, pH=7.2. For the current measurement of TRPM2 ion channel, the formula of the bath solution was: 147 mM NaCl, 2 mM KCl, 1 mM MgCl2, 10 mM HEPES, 2 mM CaCl2) 13 mM Glucose, pH=7.4, and the formula of the pipette solution was: 147 mM NaCl, 1 mM MgCl2, 10 mM HEPES, pH=7.4. For the current measurement of Nav1.5, Nav1.7 ion channels, the formula of the bath solution was: 140 mM NaCl, 3 mM KCl, 1 mM MgCl2, 1 mM CaCl2), 10 mM HEPES, pH=7.2 and the formula of the pipette solution was: 140 mM CsF, 1 mM EGTA, 10 mM NaCl, 10 mM MgCl2, 3 mM KCl, pH=7.2. To evoke sodium channel current, the membrane potential was increased from −80 mV to +10 mV.
A rapid solution changer with a gravity-driven perfusion system (RSC-200, BioLogic) was used to rapidly perfuse specific solutions into the cells to be tested. Each solution was delivered through a separate tube so that there is no mixing of solutions. The glass microelectrode with a membrane patch was placed directly below the outlet of the perfusion tube during the electrophysiology recordings.

TRPM8 [2] = molecular target: T1, TRPM8; assay: Whole-cell electrophysiological recording, menthol-activated TRPM8 in transfected HEK293T cells; format: cell-based; set-up: expressed in transfected cells; host or cells: HEK293T; details: negative control peptide
Protocol: as §1, §2
as §3, with “C.). […]” for “C.).”

T1 sequence (Q8R4D5 whole entry): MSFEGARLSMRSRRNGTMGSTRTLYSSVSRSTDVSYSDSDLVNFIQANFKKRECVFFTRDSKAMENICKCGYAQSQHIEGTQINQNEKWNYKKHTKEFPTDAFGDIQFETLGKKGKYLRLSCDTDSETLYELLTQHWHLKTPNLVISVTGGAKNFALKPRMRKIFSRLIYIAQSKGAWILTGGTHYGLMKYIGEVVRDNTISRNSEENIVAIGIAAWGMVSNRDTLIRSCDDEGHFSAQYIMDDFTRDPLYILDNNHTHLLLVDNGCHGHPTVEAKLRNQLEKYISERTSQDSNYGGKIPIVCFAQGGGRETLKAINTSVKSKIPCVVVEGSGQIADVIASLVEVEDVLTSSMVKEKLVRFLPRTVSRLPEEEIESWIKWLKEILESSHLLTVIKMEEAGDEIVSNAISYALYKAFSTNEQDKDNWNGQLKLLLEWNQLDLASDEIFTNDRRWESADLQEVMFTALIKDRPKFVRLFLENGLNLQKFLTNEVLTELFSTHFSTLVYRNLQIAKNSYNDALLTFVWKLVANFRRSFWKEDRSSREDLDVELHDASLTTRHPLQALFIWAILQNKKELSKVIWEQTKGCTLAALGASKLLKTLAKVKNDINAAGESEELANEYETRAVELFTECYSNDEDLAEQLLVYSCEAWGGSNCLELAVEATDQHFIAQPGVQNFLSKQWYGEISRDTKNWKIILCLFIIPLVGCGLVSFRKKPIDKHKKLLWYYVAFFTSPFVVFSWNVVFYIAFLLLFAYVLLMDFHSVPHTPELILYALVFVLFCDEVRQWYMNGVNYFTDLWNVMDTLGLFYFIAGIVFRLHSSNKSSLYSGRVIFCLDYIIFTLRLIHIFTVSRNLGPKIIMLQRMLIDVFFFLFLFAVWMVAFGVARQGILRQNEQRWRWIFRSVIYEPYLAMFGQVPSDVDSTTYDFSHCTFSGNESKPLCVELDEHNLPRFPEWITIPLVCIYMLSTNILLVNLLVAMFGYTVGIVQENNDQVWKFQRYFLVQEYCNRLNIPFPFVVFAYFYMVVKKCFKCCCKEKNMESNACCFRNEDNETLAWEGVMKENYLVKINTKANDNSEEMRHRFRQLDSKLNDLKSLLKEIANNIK

| Compound | maximum open probability of TRPM8 activation (TRPM8 [1]) | single-channel conductance of TRPM8 (TRPM8 [1]; n=3) | inhibition of TRPM8 (TRPM8 [2]) |
| --- | --- | --- | --- |
| CC1CCC(C(C)C)C(O)C1 (stereo not drawn) [menthol, reference compound] | ~70% | 58.83±1.85 pS |  |
| CDHRRRQARYRRC [S-DeC-1.2, negative control polypeptide, reference compound] |  |  | did not inhibit TRPM8 |
